# From the supplement of paper PMC10307832
# Key:
# Assay in all cases: relative viability (nuclei count vs DMSO), 5 days (fraction); higher = more cells survive
# SGI-1776 + Linsitinib = compound: CN1CCC(CNc2ccc3ncc(-c4cccc(OC(F)(F)F)c4)n3n2)CC1 [SGI-1776] + C[C@]1(O)C[C@@H](c2nc(-c3ccc4ccc(-c5ccccc5)nc4c3)c3c(N)nccn32)C1 [Linsitinib] (partner 1 µM)
# Method in brief: (§1)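 Lung cancer cell lines in 1536-well plates got either a single drug or a fixed anchor-drug dose together with five library-drug doses (not always all listed) in √10 steps, by pin tool, on the day after seeding. Nuclei were counted after 5 days, and relative viability is the treated-to-vehicle ratio of nuclei counts. Values are medians of duplicate plates.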
# [1] = compound: C1COCCN1C2=NC(=NC3=C2OC4=C3C=CC=N4)C5=CC(=CC=C5)NC(=O)C6=CN=C(C=C6)N + O=C(CCCCCCC(=O)Nc1ccccc1)NO [Vorinostat] (partner 1 µM)
# Method in brief: as §1
# Entinostat + Phenformin = compound: Nc1ccccc1NC(=O)c1ccc(CNC(=O)OCc2cccnc2)cc1 [Entinostat] + N=C(N)NC(=N)NCCc1ccccc1 [Phenformin] (partner 250 µM)
# Method in brief: as §1
# [2] = compound: C1COCCN1C2=NC(=NC3=C2OC4=C3C=CC=N4)C5=CC(=CC=C5)NC(=O)C6=CN=C(C=C6)N + Cc1cc(Nc2cc(N3CCN(C)CC3)nc(Sc3ccc(NC(=O)C4CC4)cc3)n2)n[nH]1 [Tozasertib] (partner 0.1 µM)
# Method in brief: as §1
Cell Line,relative viability (SGI-1776 + Linsitinib; first compound 0.08 µM),relative viability (SGI-1776 + Linsitinib; first compound 0.8 µM),relative viability (SGI-1776 + Linsitinib; first compound 2.53 µM),relative viability (SGI-1776 + Linsitinib; first compound 8 µM),relative viability ([1]; first compound 0.02 µM),relative viability ([1]; first compound 0.06325 µM),relative viability ([1]; first compound 0.2 µM),relative viability ([1]; first compound 0.6325 µM),relative viability ([1]; first compound 2 µM),relative viability (Entinostat + Phenformin; first compound 0.02 µM),relative viability (Entinostat + Phenformin; first compound 0.06325 µM),relative viability (Entinostat + Phenformin; first compound 0.2 µM),relative viability (Entinostat + Phenformin; first compound 0.6325 µM),relative viability (Entinostat + Phenformin; first compound 2 µM),relative viability ([2]; first compound 0.02 µM),relative viability ([2]; first compound 0.06325 µM),relative viability ([2]; first compound 0.2 µM),relative viability ([2]; first compound 0.6325 µM),relative viability ([2]; first compound 2 µM)
EBC-1,0.969,0.85,1.02,0.675,–,–,–,–,–,–,–,–,–,–,–,–,–,–,–
EKVX,1.1,0.985,1.01,0.863,0.698,0.794,0.678,0.644,0.556,0.225,0.243,0.227,0.222,0.205,0.396,0.391,0.34,0.408,0.236
EMC-BAC-2,0.868,0.846,0.838,0.737,0.533,0.376,0.329,0.413,0.419,0.523,0.533,0.449,0.416,0.293,0.302,0.289,0.26,0.299,0.303
EPLC-272H,1.18,1.19,1.34,1.11,0.339,0.487,0.286,0.429,0.53,0.297,0.303,0.276,0.175,0.217,0.249,0.173,0.175,0.223,0.199
H3255,1.1,1.04,0.921,0.792,0.814,0.744,0.788,0.781,0.698,0.378,0.376,0.272,0.316,0.267,0.779,0.639,0.736,0.847,0.957
HARA,1.11,0.921,0.909,0.945,0.463,0.597,0.51,0.431,0.361,0.459,0.441,0.494,0.364,0.277,0.0879,0.0809,0.112,0.0875,0.125
HCC-15,0.866,0.942,0.87,0.657,0.859,0.929,0.881,0.792,0.575,0.491,0.461,0.453,0.246,0.175,0.462,0.438,0.19,0.205,0.208
HCC-44,0.73,0.709,0.644,0.641,1.03,1.15,1.2,1.22,1.02,0.204,0.197,0.129,0.11,0.0548,0.882,1.04,0.829,0.766,0.546
HCC-78,0.582,0.432,0.449,0.403,0.444,0.5,0.431,0.326,0.334,0.819,0.751,0.55,0.329,0.27,0.394,0.427,0.432,0.367,0.24
